Measurements taken from patent publication US11884661B2, “3-substituted propionic acids as αV integrin inhibitors” (BRISTOL-MYERS SQUIBB COMPANY, priority 2016, dated 2024).

The compounds below were run against T1, human αVβ6 (Homo sapiens, UniProt P06756+P18564) (assay: human αVβ6 HTRF binding assay). Conditions: recombinant human αVβ6 integrin, FITC-conjugated fibronectin.
T1 construct: purchased R & D systems 3817-AV
Procedure, shortened: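 Biotinylated recombinant αVβ6 (1.25 nM final) incubated with FITC-fibronectin (5 nM) 1 h at RT, then streptavidin-terbium (0.625 nM) added and incubated overnight at RT in the dark before HTRF read. Buffer: 20 mM Tris pH 7.4, 1 mM MgCl2, 1 mM MnCl2, 0.01% Tween 20, 0.01% BSA.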

T1 sequence (P06756 31-992 limits assumed): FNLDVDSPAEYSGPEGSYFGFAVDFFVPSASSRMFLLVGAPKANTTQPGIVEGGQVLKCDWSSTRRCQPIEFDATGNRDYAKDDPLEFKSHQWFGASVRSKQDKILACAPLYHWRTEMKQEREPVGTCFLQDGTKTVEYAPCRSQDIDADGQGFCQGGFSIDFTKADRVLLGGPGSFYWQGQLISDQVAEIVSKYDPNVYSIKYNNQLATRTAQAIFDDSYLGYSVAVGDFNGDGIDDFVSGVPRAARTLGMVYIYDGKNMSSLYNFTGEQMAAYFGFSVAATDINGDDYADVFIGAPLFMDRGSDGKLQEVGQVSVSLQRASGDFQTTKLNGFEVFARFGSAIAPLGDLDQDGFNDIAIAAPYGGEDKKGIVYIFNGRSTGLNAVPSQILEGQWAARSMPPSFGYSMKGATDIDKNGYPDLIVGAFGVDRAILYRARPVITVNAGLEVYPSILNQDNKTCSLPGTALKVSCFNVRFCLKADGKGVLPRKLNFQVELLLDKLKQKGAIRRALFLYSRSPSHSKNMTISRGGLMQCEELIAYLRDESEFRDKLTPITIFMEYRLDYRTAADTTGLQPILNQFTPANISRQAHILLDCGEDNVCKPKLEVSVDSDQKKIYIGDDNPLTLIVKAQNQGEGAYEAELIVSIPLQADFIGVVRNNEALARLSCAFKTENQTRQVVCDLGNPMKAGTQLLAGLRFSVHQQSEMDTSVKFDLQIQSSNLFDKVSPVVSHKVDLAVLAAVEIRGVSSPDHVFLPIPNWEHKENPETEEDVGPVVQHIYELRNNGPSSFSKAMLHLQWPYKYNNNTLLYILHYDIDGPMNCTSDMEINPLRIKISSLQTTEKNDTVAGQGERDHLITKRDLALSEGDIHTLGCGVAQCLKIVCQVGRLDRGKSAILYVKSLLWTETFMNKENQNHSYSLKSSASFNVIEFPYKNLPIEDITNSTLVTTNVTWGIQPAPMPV
T1 sequence (P18564 22-707 limits assumed): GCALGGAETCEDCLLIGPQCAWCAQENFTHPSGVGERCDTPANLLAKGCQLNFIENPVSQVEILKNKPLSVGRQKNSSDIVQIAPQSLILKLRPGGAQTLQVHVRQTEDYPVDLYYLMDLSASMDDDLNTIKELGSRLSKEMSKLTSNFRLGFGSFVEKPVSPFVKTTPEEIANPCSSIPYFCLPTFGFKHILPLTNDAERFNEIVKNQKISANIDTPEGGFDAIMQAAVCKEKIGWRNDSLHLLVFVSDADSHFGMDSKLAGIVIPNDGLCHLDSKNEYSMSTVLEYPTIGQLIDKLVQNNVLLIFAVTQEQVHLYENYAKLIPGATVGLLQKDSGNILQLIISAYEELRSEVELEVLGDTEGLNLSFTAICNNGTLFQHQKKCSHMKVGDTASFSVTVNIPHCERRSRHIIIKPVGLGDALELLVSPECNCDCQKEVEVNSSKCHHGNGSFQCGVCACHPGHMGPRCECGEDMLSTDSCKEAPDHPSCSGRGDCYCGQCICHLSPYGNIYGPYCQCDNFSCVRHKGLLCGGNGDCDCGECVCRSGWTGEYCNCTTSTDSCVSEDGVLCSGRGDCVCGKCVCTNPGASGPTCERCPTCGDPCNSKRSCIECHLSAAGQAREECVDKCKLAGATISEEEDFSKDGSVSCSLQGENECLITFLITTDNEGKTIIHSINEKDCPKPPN

IC50 [nM]	Structure (SMILES)
81	CN(C)C(=O)c1ccc(C(CC(=O)O)c2nc(CCCCc3ccc4c(n3)NCCC4)cs2)cc1F (single isomer, unassigned) [Example 132, 3-(4-(dimethylcarbamoyl)-3-fluorophenyl)-3-(4-(4-(5,6,7,8-tetrahydro-1,8-naphthyridin-2-yl)butyl)thiazol-2-yl)propanoic acid]
1.9	Cc1ncc(C(CC(=O)O)c2nc(CCCc3ccc4c(n3)NCCC4)cs2)cn1 (single isomer, unassigned) [Example 147, 3-(2-methylpyrimidin-5-yl)-3-(4-(3-(5,6,7,8-tetrahydro-1,8-naphthyridin-2-yl)propyl)thiazol-2-yl)propanoic acid]
1060	COc1ccc(C(CC(=O)O)c2nc(CCCCc3ccc4c(n3)NCCC4)c(C)o2)cc1F (stereo not drawn) [Example 181, 3-(3-fluoro-4-methoxyphenyl)-3-(5-methyl-4-(4-(5,6,7,8-tetrahydro-1,8-naphthyridin-2-yl)butyl)oxazol-2-yl)propanoic acid]
87	Cc1cncc(C(CC(=O)O)c2nc(CCCc3ccc4c(n3)NCCC4)cs2)c1 (single isomer, unassigned) [Example 150, 3-(5-methylpyridin-3-yl)-3-(4-(3-(5,6,7,8-tetrahydro-1,8-naphthyridin-2-yl)propyl)thiazol-2-yl)propanoic acid]
180	COc1ccc(C(CC(=O)O)c2csc(CCCc3ccc4c(n3)NCCC4)n2)cc1F (single isomer, unassigned) [Example 152, 3-(3-fluoro-4-methoxyphenyl)-3-(2-(3-(5,6,7,8-tetrahydro-1,8-naphthyridin-2-yl)propyl)thiazol-4-yl)propanoic acid]
4.2	O=C(O)C[C@@H](c1ccc(=O)n(Cc2ccccc2)c1)n1ccc(CCCc2ccc3c(n2)NCCC3)n1 [Example 109, (S)-3-(1-benzyl-6-oxo-1,6-dihydropyridin-3-yl)-3-(3-(3-(5,6,7,8-tetrahydro-1,8-naphthyridin-2-yl)propyl)-1H-pyrazol-1-yl)propanoic acid]
37	COc1ccc(C(CC(=O)O)c2nc(CCCc3ccc4c(n3)NCCC4)cs2)cc1OC (single isomer, unassigned) [Example 142, 3-(3,4-dimethoxyphenyl)-3-(4-(3-(5,6,7,8-tetrahydro-1,8-naphthyridin-2-yl)propyl)thiazol-2-yl)propanoic acid]
91	COc1ccc(C(CC(=O)O)c2nc(CCCCc3ccc4c(n3)NCCC4)cn2C)cc1F (single isomer, unassigned) [Example 168, 3-(3-fluoro-4-methoxyphenyl)-3-(1-methyl-4-(4-(5,6,7,8-tetrahydro-1,8-naphthyridin-2-yl)butyl)-1H-imidazol-2-yl)propanoic acid]
47	COc1ccc(C(CC(=O)O)c2cc(CCCc3ccc4c(n3)NCCC4)[nH]n2)cc1F (stereo not drawn) [Example 116, 3-(3-Fluoro-4-methoxyphenyl)-3-(5-(3-(5,6,7,8-tetrahydro-1,8-naphthyridin-2-yl)propyl)-1H-pyrazol-3-yl)propanoic acid]
370	COc1ccc(C(CC(=O)O)c2nc(CCCC3CCc4cccnc4N3)cs2)cc1F (single isomer, unassigned) [Example 159, 3-(3-fluoro-4-methoxyphenyl)-3-(4-(3-(1,2,3,4-tetrahydro-1,8-naphthyridin-2-yl)propyl)thiazol-2-yl)propanoic acid]
1.4	COc1ccc(C(CC(=O)O)c2nc(CCCc3ccc4c(n3)NCCC4)co2)cc1F (stereo not drawn) [Example 178, 3-(3-fluoro-4-methoxyphenyl)-3-(4-(3-(5,6,7,8-tetrahydro-1,8-naphthyridin-2-yl)propyl)oxazol-2-yl)propanoic acid]
43	COc1ncc(C(CC(=O)O)n2ncc(CCCc3ccc4c(n3)NCCC4)n2)cn1 (single isomer, unassigned) [Example 176, 3-(2-methoxypyrimidin-5-yl)-3-(4-(3-(5,6,7,8-tetrahydro-1,8-naphthyridin-2-yl)propyl)-2H-1,2,3-triazol-2-yl)propanoic acid]
620	COc1ccc(C(CC(=O)O)n2ncc(CCCc3ccc4c(n3)NCCC4)n2)cn1 (single isomer, unassigned) [Example 170, 3-(6-methoxypyridin-3-yl)-3-(4-(3-(5,6,7,8-tetrahydro-1,8-naphthyridin-2-yl)propyl)-2H-1,2,3-triazol-2-yl)propanoic acid]
27	COc1ccc(C(CC(=O)O)c2ncc(CCCCc3ccc4c(n3)NCCC4)n2C)cc1F (single isomer, unassigned) [Example 167, 3-(3-fluoro-4-methoxyphenyl)-3-(1-methyl-5-(4-(5,6,7,8-tetrahydro-1,8-naphthyridin-2-yl)butyl)-1H-imidazol-2-yl)propanoic acid]

The remaining lines, values behind:

Structure (SMILES)	IC50 [nM]
O=C(O)CC(c1cnc(N2CCC2)nc1)n1ccc(CCCc2ccc3c(n2)NCCC3)n1 (racemic) [Example 50, (±)-3-(2-(Azetidin-1-yl)pyrimidin-5-yl)-3-(3-(3-(5,6,7,8-tetrahydro-1,8-naphthyridin-2-yl)propyl)-1H-pyrazol-1-yl)propanoic acid]	6.4
COc1ccc(C(CC(=O)O)c2cnn(CCCCc3ccc4c(n3)NCCC4)c2)cc1F (stereo not drawn) [Example 44, 3-(3-fluoro-4-methoxyphenyl)-3-(1-(4-(5,6,7,8-tetrahydro-1,8-naphthyridin-2-yl)butyl)-1H-pyrazol-4-yl)propanoic acid]	64
COc1ncc(C(CC(=O)O)n2nccc2CCCc2ccc3c(n2)NCCC3)cc1F (racemic) [Example 77, (±)-3-(5-fluoro-6-methoxypyridin-3-yl)-3-{5-[3-(5,6,7,8-tetrahydro-1,8-naphthyridin-2-yl)propyl]-1H-pyrazol-1-yl}propanoic acid]	18
O=C(O)CC(c1cc(Cl)cc(Cl)c1)c1cnn(CCCc2ccc3c(n2)NCCC3)c1 (racemic) [Example 26, (±)-3-(3,5-Dichlorophenyl)-3-(1-(3-(5,6,7,8-tetrahydro-1,8-naphthyridin-2-yl)propyl)-1H-pyrazol-4-yl)propanoic acid]	27
COc1ncc([C@H](CC(=O)O)n2ccc(CCCc3ccc4c(n3)NCCC4)n2)cn1 [Example 82, (S)-3-(2-methoxypyrimidin-5-yl)-3-(3-(3-(5,6,7,8-tetrahydro-1,8-naphthyridin-2-yl)propyl)-1H-pyrazol-1-yl)propanoic acid]	8.5
COc1ccc(C(CC(=O)O)c2cnn(CCCCc3ccc4c(n3)NCCC4)c2)cn1 (racemic) [Example 11, (±)-3-(6-Methoxypyridin-3-yl)-3-(1-(4-(5,6,7,8-tetrahydro-1,8-naphthyridin-2-yl)butyl)-1H-pyrazol-4-yl)propanoic acid]	100
COc1ccc(C(CC(=O)O)n2nccc2CCCc2ccc3c(n2)NCCC3)cc1F (racemic) [Example 71, (±)-3-(3-fluoro-4-methoxyphenyl)-3-{5-[3-(5,6,7,8-tetrahydro-1,8-naphthyridin-2-yl)propyl]-1H-pyrazol-1-yl}propanoic acid]	15
COc1ncc(C(CC(=O)O)n2nccc2CCC[C@H]2CCc3cccnc3N2)cn1 (mixture of isomers) [Example 92, 3-(2-methoxypyrimidin-5-yl)-3-(5-(3-((S)-1,2,3,4-tetrahydro-1,8-naphthyridin-2-yl)propyl)-1H-pyrazol-1-yl)propanoic acid]	6700
COc1ncc(C(CC(=O)O)n2nccc2CCCc2ccc3c(n2)NCCCC3)cn1 (racemic) [Example 106, (±)-3-(2-methoxypyrimidin-5-yl)-3-(5-(3-(6,7,8,9-tetrahydro-5H-pyrido[2,3-b]azepin-2-yl)propyl)-1H-pyrazol-1-yl)propanoic acid]	820
COc1ccc(C(CC(=O)O)c2ncc(CCCc3ccc4c(n3)NCCC4)s2)cc1F (single isomer, unassigned) [Example 42, 3-(3-Fluoro-4-methoxyphenyl)-3-(5-(3-(5,6,7,8-tetrahydro-1,8-naphthyridin-2-yl)propyl)thiazol-2-yl)propanoic acid]	28
COc1ccc(C(CC(=O)O)c2nc(CCCCc3ccc4c(n3)NCCC4)cs2)cc1F (single isomer, unassigned) [Example 36, 3-(3-Fluoro-4-methoxyphenyl)-3-(4-(4-(5,6,7,8-tetrahydro-1,8-naphthyridin-2-yl)butyl)thiazol-2-yl)propanoic acid]	157
Cc1ncc([C@@H](CC(=O)O)n2ccc(CCCc3ccc4c(n3)NCCC4)n2)cn1 [Example 55, (R)-3-(2-Methylpyrimidin-5-yl)-3-(3-(3-(5,6,7,8-tetrahydro-1,8-naphthyridin-2-yl)propyl)-1H-pyrazol-1-yl)propanoic acid]	900
COc1ccc(C(CC(=O)O)c2nc(CCCc3ccc4c(n3)NCCC4)cs2)cc1F (single isomer, unassigned) [Example 39, 3-(3-Fluoro-4-methoxyphenyl)-3-(4-(3-(5,6,7,8-tetrahydro-1,8-naphthyridin-2-yl)propyl)thiazol-2-yl)propanoic acid]	23
COc1ncc(C(CC(=O)O)n2ccc(CCCc3ccc4c(n3)NCCC4)n2)cn1 (racemic) [Example 34, (±)-3-(2-Methoxypyrimidin-5-yl)-3-(3-(3-(5,6,7,8-tetrahydro-1,8-naphthyridin-2-yl)propyl)-1H-pyrazol-1-yl)propanoic acid]	10
O=C(O)CC(c1cncnc1)n1ccc(CCCc2ccc3c(n2)NCCC3)n1 (stereo not drawn) [Example 84, 3-(pyrimidin-5-yl)-3-(3-(3-(5,6,7,8-tetrahydro-1,8-naphthyridin-2-yl)propyl)-1H-pyrazol-1-yl)propanoic acid]	110
Cc1cc(C)c(S(=O)(=O)NC(Cc2cnn(CCCc3ccc4c(n3)NCCC4)c2)C(=O)O)c(C)c1 (racemic) [Example 25, (±)-3-(1-(3-(5,6,7,8-Tetrahydro-1,8-naphthyridin-2-yl)propyl)-1H-pyrazol-4-yl)-2-((2,4,6-trimethylphenyl)sulfonamido)propanoic acid]	395
